Source: patent publication US9155761B2, “Method for the treatment of cancer” (UNIVERSITY COLLEGE CORK, NATIONAL UNIVERSITY OF IRELAND, …, priority 2009, dated 2015)
Entries after “also recorded” stand apart in the source; their conditions may differ. Like-named read-outs stand apart in the source and are kept apart here. Residues, ends and D or L forms follow the SMILES beside them. *: point of attachment. Cbz = O=C(OCc1ccccc1)*; CH2F = FC*

Columns and labels:
[1] = tested on: OE21; test: MTT viability and recovery assay; format: cell-based, human
Description: (§1) Viability of esophageal cells was assessed using the MTT reduction assay. Cells are seeded at 2×10^4 (OE33/OE19) and 1×10^4 (OE21/KYSE450) cells per cm^2, treated for 48-96 hours and incubated for an additional 60 minutes at 37° C. in 0.5 mg/ml MTT dye. Viable, metabolizing cells reduce MTT dye, producing a dark formazan product, with absorbance read at 562 nm, reference wavelength 620 nm. To assess recovery, at 48 hours post treatment, in replicate plates (identical seeding & treatment times), all drugs were removed, culture medium was replaced, and these cells were cultured for a further 48-96 hours, to monitor their ability to recover and MTT assay was repeated.
(§2) In analysis of MTT data, values are presented as the Mean absorbance+/−Standard Error of the Mean (S.E.M) for four independent experiments. Statistical analysis was performed with paired Student's t-test. Values of p<0.05 were considered statistically significant. Asterisks indicate the level of significance.

[2] = tested on: KYSE450; format: cell-based, human
Description: as §1, §2

[3] = tested on: OE21
Description: (§3) Morphological features of cells treated with 5-fluorouracil (5-FU)/cisplatin, without and with 3-MA, LY294002, Bafilomycin, Lithium chloride, rapamycin or HA14-I were examined by light microscopy. Morphologies of treated cells were examined 24 and 48 hours post treatment, treatment times are referred to in figure legends. Aliquots of vehicle control and drug treated cells were cytospun onto glass slides and stained with Rapi-Diff (Braidwood laboratories, UK). The extent of apoptotic and non-apoptotic cell death was determined by counting the cells in at least three fields of view per slide, with an average of ˜100 cells per field. Apoptotic cell death is characterized by the presence of two or more of the following morphological features: cell shrinkage, chromatin condensation, DNA degradation and fragmentation into ‘apoptotic bodies’, within an intact plasma membrane. Autophagic cell death was identified by clear elevation of cytoplasmic vesicles, loss of cytoplasmic material, pyknosis of the nuclear material and an intact nuclear membrane. Cytospin images are representative of at least three independent experiments.

[4] = tested on: KYSE450; test: Evaluation of cell death morphology by light microscopy; format: cell-based, human
Description: as §3

[5] = tested on: LC3 in KYSE450 cells; test: LC3 / GFP-LC3 processing and distribution (Western blot, fluorescence microscopy); format: cell-based, human
Description: (§4) Total cellular protein extracts were prepared by scraping the cells into modified RIPA buffer (50 mM Tris HCl (pH 7.4), 150 mM NaCl, 0.25% Sodium deoxycholate, 1% Igepal, protease inhibitors 1 mM EDTA, 1× Pefabloc, 1× protease inhibitor cocktail, 1 mM Na3VO4, 1 mM NaF). All protein samples were separated by SDS-PAGE (10/12%) and electrophoretically transferred onto nitrocellulose membrane. All primary antibodies were incubated overnight at 4° C.: anti-phospho mTOR (Ser 2448) and anti-p70^S6K (Thr 389) (Cell Signaling Technologies, UK), anti-Beclin-1 (BD Biosciences, UK) and anti-LC3 (Medical & Biological Laboratories, Japan). The membranes were incubated with the relevant horseradish peroxidase conjugated secondary antibodies (DakoCytomation, Dublin) and detected by chemiluminescence (ECL Amersham, UK).
(§5) To visualize and quantify the formation of autophagic vesicles, the green fluorescent protein (GFP)-LC3 (pEGFP-LC3) expression vector, kindly supplied by Dr. T. Yoshimori (National Institute of Genetics, Japan) was used. Cells were transiently transfected with the Amaxa electroporation system according to the supplier's protocol. Twenty-four hours post transfection, cells were treated with 5-FU and/or Cisplatin, fixed in 4% paraformaldehyde in PBS and transferred onto slides using a non-fluorescent fixative for analysis by fluorescence microscopy. Alternatively, Western Blot analysis was used to assess the expression and processing of LC3. […] The membrane sequestered, lipid-conjugated form of LC3-II remains with the autophagosome membrane after the vesicle has formed, and levels of both isoform are detected by Western Blot. Transfection efficiency was consistent for a given cell line, OE33 and KYSE450 cell lines (˜60-70%) compared to OE19 and OE21 cell lines (˜30%).

[6] = tested on: LC3 in OE19 cells; test: as above; format: cell-based, human
Description: as §4, §5

[7] = tested on: LC3 in OE33 cells; test: as above; format: cell-based, human
Description: as §4, §5

[8] = tested on: OE19; test: MTT viability and recovery assay; format: cell-based, human; details: 10 μM cisplatin, 48 hours
Description: as §1, §2

[9] = tested on: OE33; test: MTT viability and recovery assay; format: cell-based, human; details: 10 μM cisplatin, 48 hours
Description: as §1, §2

[10] = tested on: OE19; test: Evaluation of cell death morphology by light microscopy; format: cell-based, human
Description: as §3

[11] = tested on: OE33; test: as above; format: cell-based, human; details: 5-FU (50 μM) or cisplatin (40 μM), 48 hours
Description: as §3

[12] = tested on: active caspase-3 in KYSE450 cells; test: Active caspase-3 by flow cytometry; format: cell-based, human; details: 48 hours after treatment, range of concentrations
Description: (§6) To examine control and 5-Fluorouracil treated cells for evidence of caspase activity cells were processed by trypsinization, 48 hours after treatment. […] This was detected with an anti rabbit FITC conjugated secondary antibody, and samples were analyzed by FACScan at 530 nm (FL-1). Percentages indicate the proportion of cells with active caspase-3, detected as an increase in the number of FITC (FL-1) labelled cells.

[13] = tested on: active caspase-3 in OE19 cells; test: Active caspase-3 by flow cytometry; format: cell-based, human; details: 48 hours after treatment
Description: as §6

[14] = tested on: active caspase-3 in OE21 cells; test: Active caspase-3 by flow cytometry; format: cell-based, human; details: 48 hours after treatment
Description: as §6

[15] = tested on: active caspase-3 in OE33 cells; test: Active caspase-3 by flow cytometry; format: cell-based, human; details: 48 hours after treatment
Description: as §6

[16] = tested on: KYSE450; test: Mitochondrial depolarization, JC-1 probe; format: cell-based, human; details: 48 hour treatment
Description: (§7) Mitochondrial membrane potential was determined using the JC-1 probe (Molecular Probes). In non-apoptotic cells, JC1 accumulates as aggregates in the mitochondria, which stain red (FL2; 590 nm). At the onset of apoptosis, a loss of mitochondrial membrane potential (ΔΨm) releases the aggregated JC1, returning it to its monomeric form, which stains the cytosol green (FL1; 530 nm). Therefore, fluorescence of the JC-1 probe in the FL-2 channel decreases as mitochondrial membrane integrity is lost, while the fluorescence in FL-1 channel increases. Cells were incubated in JC1 (7.5 μg/ml) at 37° C. for 15 mins, and washed prior to analysis by flow cytometry (FACScan, Becton Dickinson). Percentages denote the proportion of cells with depolarised mitochondria following 48 hour incubation with 5-Fluorouracil and represent at least three independent experiments.

[17] = tested on: OE19; test: Mitochondrial depolarization, JC-1 probe; format: cell-based, human; details: 48 hour treatment
Description: as §7

[18] = tested on: OE21; test: Mitochondrial depolarization, JC-1 probe; format: cell-based, human; details: 48 hour treatment
Description: as §7

[19] = tested on: OE33; test: Mitochondrial depolarization, JC-1 probe; format: cell-based, human; details: 48 hour treatment
Description: as §7

[20] = tested on: LC3 in OE21 cells; test: LC3 / GFP-LC3 processing and distribution (Western blot, fluorescence microscopy); format: cell-based, human; details: 5-FU or cisplatin (images not shown)
Description: as §4, §5

[21] = tested on: KYSE450; test: Monodansylcadaverine (MDC)-labelled vacuoles; format: cell-based, human; details: 25 μM
Description: (§8) MDC is an autofluorescent weak base that accumulates in acidic lysosomal vacuoles, showing high selectivity for autophagosomes, due to the high level of unhydrolyzed membrane lipids from engulfed organelles, which enhance MDC fluorescence. Cells were incubated with 0.1 mM MDC in PBS at 37° C. for 10 minutes (Biederbick et al., 1995), washed and immediately analyzed by fluorescent microscopy.

[22] = tested on: OE19; test: Monodansylcadaverine (MDC)-labelled vacuoles; format: cell-based, human; details: 25 μM
Description: as §8

[23] = tested on: OE21; test: Monodansylcadaverine (MDC)-labelled vacuoles; format: cell-based, human; details: 25 μM
Description: as §8

[24] = tested on: OE33; test: Monodansylcadaverine (MDC)-labelled vacuoles; format: cell-based, human; details: 25 μM
Description: as §8

[25] = 10 nM, 24 and 48 hours post treatment
[26] = 5-FU (50 μM) or cisplatin (40 μM), 48 hours
[27] = 40 μM cisplatin, 48 hours (FIG. 1c)

Compound: CO/C1=C\C(C)=C\[C@@H](C)[C@@H](O)[C@@H](C)C/C(C)=C/C=C/[C@H](OC)[C@@H]([C@@H](C)[C@@H](O)[C@H](C)[C@@]2(O)C[C@@H](O)[C@H](C)[C@@H](C(C)C)O2)OC1=O [Bafilomycin, Bafilomycin A1]
- cell death (MTT) [1]: induced significant cell death
- cytotoxicity (MTT) ([2]; Bafilomycin 100 nM): cytotoxic alone
- viability (MTT) ([2]; Bafilomycin 10-100 nM): reduction in MTT
- morphology ([3]; Bafilomycin 1.0 nM alone or with 5-FU (30 μM)): significant levels of vesicular accumulation
- morphology ([4]; Bafilomycin 10.0 nM alone or with 5-FU (50 μM)): significant levels of vesicular accumulation
- levels of endogenous LC3 (Western blot) [5, 25]: induced an accumulation in the levels of endogenous LC3
- GFP-LC3 distribution (fluorescence microscopy) ([6]; 10 nM bafilomycinA1, 24 and 48 hours): accumulation of GFP-LC3 tagged autophagosomes
- levels of endogenous LC3 (Western blot) [7, 25]: induced an accumulation in the levels of endogenous LC3

Compound: Cn1cnc(N)c2ncnc1-2 [3-MA, 3-Methyladenine]
- morphology ([3]; 3-MA without and with 5-FU (30 μM), 48 hours): did not significantly affect morphology
- morphology ([4]; 3-MA (10.0 μM) without and with 5-FU (50 μM), 48 hours): did not significantly affect morphology

Compound: COC(=O)C[C@H](NC(=O)[C@H](C)NC(=O)[C@@H](NC(=O)OCc1ccccc1)C(C)C)C(=O)CF [zVAD-fmk] (Cbz-Val-Ala-Asp(OMe)-CH2F)
- inhibition of apoptosis induced by 5-FU ([3]; zVAD-fmk (25 μM) for 2 hours prior to 5-FU treatment): completely inhibited

Compound: N.N.[Cl][Pt][Cl] [cisplatin]
- cell viability (MTT) [8]: only marginally affected
- cell viability (MTT) ([1]; 10 μM cisplatin, 48 hours): significant effects on cell viability
- cell viability (MTT) [9]: significant effects on cell viability
- cell viability (MTT) ([2]; 10 μM cisplatin, 48 hours): only marginally affected
- apoptotic cell death ([3]; 40 μM cisplatin, 48 hours): 31%
- non-apoptotic cell death ([3]; 40 μM cisplatin, 48 hours): 3%
- cell death morphology [3, 26]: predominantly apoptotic cell death morphology
- cell death morphology [4, 26]: predominantly non-apoptotic morphology
- apoptosis [10, 27]: 0.5%
- non-apoptotic cell death [10, 27]: 38%
- cell death morphology [10, 26]: predominantly non-apoptotic morphology
- cell death morphology [11]: predominantly apoptotic cell death morphology
- active caspase-3 [12]: do not show caspase-3 activity
- active caspase-3 [13]: do not show caspase-3 activity
- active caspase-3 [14]: displayed active caspase-3
- active caspase-3 [15]: displayed active caspase-3
- mitochondrial depolarization (JC-1) [16]: do not show caspase-3 activity or mitochondrial membrane depolarization
- mitochondrial depolarization (JC-1) [17]: do not show caspase-3 activity or mitochondrial membrane depolarization
- mitochondrial depolarization (JC-1) [18]: mitochondrial depolarization
- mitochondrial depolarization (JC-1) [19]: mitochondrial depolarization
- GFP-LC3 distribution (fluorescence microscopy) ([5]; 5-FU or cisplatin (data not shown)): Redistribution of GFP-LC3 from a diffuse cytosolic to a punctate autophagosome-associated pattern
- GFP-LC3 distribution (fluorescence microscopy) ([6]; 5-FU (25 & 50 μM) or cisplatin (10 & 25 μM)): Redistribution of GFP-LC3 from a diffuse cytosolic to a punctate autophagosome-associated pattern; also recorded: bright punctate patterns of GFP-LC3 fluorescence
- GFP-LC3 distribution (fluorescence microscopy) [20]: Diffuse cytoplasmic localization of GFP-LC3
- GFP-LC3 distribution (fluorescence microscopy) ([7]; 5-FU or cisplatin (images not shown)): Diffuse cytoplasmic localization of GFP-LC3
- MDC staining pattern [21]: accumulation of MDC (bright blue punctate staining) throughout the cytoplasm
- MDC staining pattern [22]: accumulation of MDC (bright blue punctate staining) throughout the cytoplasm
- MDC staining pattern [23]: MDC staining patterns are diffuse
- MDC staining pattern [24]: MDC staining patterns are diffuse

Compound: CCOC(=O)C1=C(N)Oc2ccc(Br)cc2C1C(C#N)C(=O)OCC (stereo not drawn) [HA14-1]
- morphology ([4]; HA14-1 (5 μM) and/or 5-FU (50 μM), 24 hours): rarely causes apoptosis
- morphology ([4]; HA14-1 (5 μM) and/or 5-FU (50 μM), 24 hours, listed as HA14-I): the induction of apoptosis is observed, but at very low levels
- morphology ([4]; HA14-1 (10 μM) without and with 5-FU (50 μM), 24 hours): the induction of apoptosis is apparent, but again at low levels
- morphology ([4]; HA14-1 (20 μM), 24 hours): rarely causes apoptosis
- morphology ([4]; HA14-1 (20 μM), 24 hours, listed as HA14-I): the induction of apoptosis is apparent, but again at low levels
- morphology ([4]; HA14-1 (30 μM), 24 hours): apoptotic cells are visible
- morphology ([4]; HA14-1 (30 μM), 24 hours, listed as HA14-I): induced clear levels of apoptotic cell death
- morphology ([4]; HA14-1 (30 μM), 48 hours): apoptotic cells are visible
- morphology ([4]; HA14-1 (30 μM), 48 hours, listed as HA14-I): induced clear levels of apoptotic cell death
